Measured values: patent US20260240203A1, “COMPOSITIONS CONTAINING GAMMA-AMINOBUTYRIC ACID AND METHODS FOR IMPROVING COGNITIVE FUNCTIONS, MOOD, AND ALERTNESS” (THE COCA-COLA COMPANY, priority 2023, published 2026)

Key:
healthy adults [1] = conditions: vs placebo; compositive level; single beverage dose
healthy adults [2] = conditions: p-value vs placebo; compositive level; single beverage dose; b330

Cn1c(=O)c2c(ncn2C)n(C)c1=O [Caffeine, caffeine]
accuracy of performance (healthy adults [1]): numerically trends to improve the accuracy of performance, although no significance observed | improve the speed of performance significantly comparing to placebo (p), as printed in the attention paragraph (healthy adults [2]): 0.002
